The NIST ThermoML archive (doi:10.1007/s10765-008-0535-5)

Conditions: Liquid, Pycnometric method

FCF [difluoromethane]
Conditions	mass density [kg/m3]
268.15 K, 8268 kPa	1093.5
268.15 K, 8502 kPa	1093.5
269.15 K, 9280 kPa	1093.3
269.15 K, 9512 kPa	1093.3
270.15 K, 10291 kPa	1093.2
270.15 K, 10521 kPa	1093.2
271.15 K, 11302 kPa	1093
271.15 K, 11531 kPa	1093
272.15 K, 12312 kPa	1092.9
272.15 K, 12421 kPa	1092.9
272.15 K, 12540 kPa	1092.9
273.15 K, 13321 kPa	1092.7
273.15 K, 13429 kPa	1092.8
273.15 K, 13551 kPa	1092.7
274.15 K, 14330 kPa	1092.6
274.15 K, 14438 kPa	1092.6
274.15 K, 14560 kPa	1092.6
275.15 K, 15337 kPa	1092.4
275.15 K, 15444 kPa	1092.4
275.15 K, 15568 kPa	1092.4
276.15 K, 16344 kPa	1092.3
276.15 K, 16452 kPa	1092.3
276.15 K, 16577 kPa	1092.3
277.15 K, 17350 kPa	1092.1
277.15 K, 17457 kPa	1092.1
277.15 K, 17583 kPa	1092.1
278.15 K, 18354 kPa	1092
278.15 K, 18462 kPa	1092
278.15 K, 18589 kPa	1092
279.15 K, 19358 kPa	1091.8
279.15 K, 19465 kPa	1091.8
279.15 K, 19595 kPa	1091.8
280.15 K, 20361 kPa	1091.7
280.15 K, 20468 kPa	1091.7
280.15 K, 20598 kPa	1091.7
281.15 K, 21363 kPa	1091.5
281.15 K, 21470 kPa	1091.5
281.15 K, 21601 kPa	1091.5
282.15 K, 22363 kPa	1091.4
282.15 K, 22472 kPa	1091.4
282.15 K, 22602 kPa	1091.4
283.15 K, 23363 kPa	1091.2
283.15 K, 23473 kPa	1091.2
283.15 K, 23603 kPa	1091.2
284.15 K, 24362 kPa	1091.1
284.15 K, 24472 kPa	1091.1
284.15 K, 24606 kPa	1091
285.15 K, 25359 kPa	1090.9
285.15 K, 25470 kPa	1090.9
285.15 K, 25603 kPa	1090.9
286.15 K, 26356 kPa	1090.8
286.15 K, 26466 kPa	1090.8
286.15 K, 26598 kPa	1090.7
287.15 K, 27351 kPa	1090.6
287.15 K, 27461 kPa	1090.6
287.15 K, 27594 kPa	1090.6
288.15 K, 28345 kPa	1090.4
288.15 K, 28454 kPa	1090.4
288.15 K, 28588 kPa	1090.4
289.15 K, 5774 kPa	1015.9
289.15 K, 5835 kPa	1015.9
289.15 K, 29338 kPa	1090.3
289.15 K, 29446 kPa	1090.3
289.15 K, 29581 kPa	1090.3
290.15 K, 6570 kPa	1015.8
290.15 K, 6631 kPa	1015.8
291.15 K, 7365 kPa	1015.7
291.15 K, 7428 kPa	1015.7
292.15 K, 8161 kPa	1015.6
292.15 K, 8224 kPa	1015.5
293.15 K, 8956 kPa	1015.5
293.15 K, 9019 kPa	1015.4
294.15 K, 9752 kPa	1015.3
294.15 K, 9815 kPa	1015.3
295.15 K, 10546 kPa	1015.2
295.15 K, 10610 kPa	1015.2
296.15 K, 11341 kPa	1015.1
296.15 K, 11405 kPa	1015.1
297.15 K, 12135 kPa	1015
297.15 K, 12199 kPa	1014.9
298.15 K, 12929 kPa	1014.9
298.15 K, 12993 kPa	1014.8
299.15 K, 13723 kPa	1014.7
299.15 K, 13787 kPa	1014.7
300.15 K, 14517 kPa	1014.6
300.15 K, 14581 kPa	1014.6
301.15 K, 15309 kPa	1014.5
301.15 K, 15374 kPa	1014.4
302.15 K, 16102 kPa	1014.4
302.15 K, 16167 kPa	1014.3
303.15 K, 16894 kPa	1014.2
303.15 K, 16960 kPa	1014.2
304.15 K, 17685 kPa	1014.1
304.15 K, 17752 kPa	1014.1
305.15 K, 18476 kPa	1014
305.15 K, 18543 kPa	1014
306.15 K, 19267 kPa	1013.9
306.15 K, 19335 kPa	1013.8
307.15 K, 20125 kPa	1013.7
308.15 K, 20848 kPa	1013.6
308.15 K, 20915 kPa	1013.6
309.15 K, 21639 kPa	1013.5
309.15 K, 21704 kPa	1013.4
310.15 K, 22429 kPa	1013.4
310.15 K, 22492 kPa	1013.3
311.15 K, 23217 kPa	1013.3
311.15 K, 23281 kPa	1013.2
312.15 K, 24005 kPa	1013.2
312.15 K, 24068 kPa	1013.1
313.15 K, 24793 kPa	1013
313.15 K, 24855 kPa	1012.9
314.15 K, 25579 kPa	1012.9
314.15 K, 25641 kPa	1012.8
315.15 K, 26364 kPa	1012.8
315.15 K, 26427 kPa	1012.7
316.15 K, 27149 kPa	1012.7
316.15 K, 27212 kPa	1012.6
317.15 K, 27934 kPa	1012.5
317.15 K, 27996 kPa	1012.4
318.15 K, 28719 kPa	1012.4
318.15 K, 28779 kPa	1012.3
